# Where “and” joins values, the source holds several entries; their conditions need not be identical. Equal entries are not always repeated.
# How the values were obtained:
# [1] = test system: HSV-1; experiment: Plaque reduction of HSV-1 on Vero cell monolayer; format: cell-based, Herpes simplex virus type 1 (MacIntyre strain); conditions: valacyclovir 16 μM, 20(S)-Rg3 50 μM; for Number of Plaques: approximately 50 PFU/well, 48 h, ± standard error; for Percent Reduction (plaques of HSV-1): compared to control
# Protocol: (§1) Herpes simplex virus type 1 (HSV-1, MacIntyre strain, ATCC, VR-539) or herpes simplex virus type 2 (HSV-2, ATCC, VR-734) were used in these studies. Virus titer was determined by plaque assay. Briefly, following 2 h adsorption of various virus dilutions onto a Vero cell monolayer in a 24-well plate, the medium was removed and cells were overlaid with 1.5% carboxymethylcellulose (Sigma) and incubated 48 h at 37°C with 5% CO2. After incubation, cells were fixed with methanol, stained with Giemsa (Sigma) and plaques were counted. Each virus dilution was prepared in quadruplicate.
# The plaque assay procedure also was used to evaluate the percent plaque reduction; the only procedural change was that a constant virus concentration was used (50 PFU/well). Plaque reduction was measured by comparing the control (virus only), with valacyclovir (16 µM) with virus or 20(S)-Rg3 (50 µM) with virus. Sample wells were evaluated in quadruplicate. Following the 2 h virus adsorption, the methylcellulose-medium containing the same concentrations of valacyclovir or 20(S)-Rg3 was added to the appropriate wells. After 48 h, plaques were fixed, stained and counted.
# [2] = test system: HSV-1; experiment: HSV-1 inhibition in Vero cells (PrestoBlue, compound and virus added simultaneously); format: cell-based, Herpes simplex virus type 1 (MacIntyre strain); conditions: for IC50: Human alphaherpesvirus 1, two-fold dilutions, linear regression, Vero cells, read-out: IC50 against HSV-1
# Protocol: as §1
# (§2) All ginsenosides, isomers, and protopanaxadiols were evaluated for toxic effects on Vero cells prior to anti-viral testing. Cells were seeded at 5,000 cells/well in a black 96-well plate with clear bottom in a volume of 100 µl and allowed to attach for 24 h. The P. ginseng compounds were prepared in DMSO at 100 µM and were taken through serial two-fold dilutions to determine the concentration when the rate of cell death was less than 10%compared to control, untreated cells. Each dilution was tested in three wells and all assays were repeated three times. Following 48 h incubation at 37°C in 5% CO2, 11 µl of PrestoBlue (Invitrogen) was added to each well and the plate was incubated for an additional 30 min. PrestoBlue determines cell viability by changing from blue to red as resazurin is reduced to resorufin by viable cells. Following the PrestoBlue incubation, fluorescence was determined by spectrophotometric reading using Soft Max Pro (Molecular Diagnostics, USA).
# (§3) For cytotoxicity testing, 4 µl of dilutions of the ginsenosides or protopanaxadiols were added to 396 µl of medium 199 and 100 µl of this mixture was added to each of three wells. For anti-viral testing, 4 µl of the non-toxic reagent and 4 µl of HSV-1 or HSV-2 diluted to an MOI of 0.1 were added to 392 µl of medium 199 and 100 µl of this was added to each of three wells. Virus inhibition was determined by comparing the cell death of reagent-exposed cells with cell death of control cells only receiving virus. The 50%inhibitory concentration (IC50) was determined through a series of two-fold dilutions and calculation by linear regression analysis.
# [3] = Cytotoxicity on Vero cells (PrestoBlue cell viability assay); format: cell-based; conditions: African green monkey, read-out: Percent Cell Viability; for viability at 48 h, 500 μM: 20(S)-Rg3 500 μM
# [4] = test system: HSV-1; experiment: Time studies of HSV-1 inhibition (PrestoBlue); format: cell-based, Herpes simplex virus type 1 (MacIntyre strain); conditions: for Percent Inhibition of HSV-1: 20(S)-Rg3 50 μM
# Protocol: For virus inhibition studies described above, reagent 20(S)-Rg3 and virus were added to cells simultaneously. In an attempt to evaluate the potential mode of action of 20(S)-Rg3, various combinations of valacyclovir, 20(S)-Rg3 and HSV-1 were tested at different time periods. The following combinations were evaluated at both one hour and four hours:
# • ● Virus applied to cells first (for one hour or four hours), followed by addition of valacyclovir, 20(S)-Rg3 or both valacyclovir and 20(S)-Rg3 to the cells • ● Valacyclovir or 20(S)-Rg3 or both valacyclovir and 20(S)-Rg3 applied to cells first (for one or four hours), followed by virus • ● Valacyclovir or 20(S)-Rg3 incubated together with virus first for one or four hours then added to cells
# All procedures described for evaluation of virus inhibition were followed in identical fashion as outlined for the PrestoBlue procedure except valacyclovir was used at a constant concentration of 16 µM and 20(S)-Rg3 at 50 µM.
# [5] = test system: Vero cells; experiment: Cytotoxicity on Vero cells (PrestoBlue cell viability assay); format: cell-based
# Protocol: as §2, §3
# [6] = as above; format: cell-based; conditions: African green monkey
# Protocol: as §2, §3
# [7] = test system: HSV-2; experiment: HSV-2 inhibition in Vero cells (PrestoBlue, compound and virus added simultaneously); format: cell-based, herpes simplex virus type 2; conditions: for Percent Inhibition of HSV-2: ± standard error
# Protocol: as §1, §2, §3
# [8] = parameters: method as in New Drug Application #20-487/S-007, GlaxoSmithKline; conditions: ref New Drug Application #20-487/S-007, GlaxoSmithKline; cited from earlier work
# [9] = test system: PC12 cells; conditions: cited from earlier work
# [10] = test system: normal WI 38 cells; parameters: method as in PMID 18365686; conditions: 120 μM; cited from earlier work
# [11] = test system: human carcinoma cells KB V20C; conditions: cited from earlier work
# [12] = each compound at its non-toxic concentration (Table 1 c1), MOI 0.1, value in parentheses = higher cell death than virus-alone control
compound,measurement,setting,value
"CC(C)=CCC[C@](C)(O)C1CC[C@]2(C)C1C(O)CC1C3(C)CCC(OC4OC(CO)C(O)C(O)C4OC4OC(CO)C(O)C(O)C4O)C(C)(C)C3CCC12C (stereo partly drawn) [20(S)-Rg3, Ginsenoside 20(S)-Rg3]",Number of Plaques,[1],1.5 ± 0.3
same,Percent Reduction (plaques of HSV-1),[1],97.3%
same,Percent Inhibition of HSV-1,"[2]; 20(S)-Rg3 25 μM, ± standard error",11.0 ± 2.6%
same,Percent Inhibition of HSV-1,"[2]; 20(S)-Rg3 50 μM, ± standard error",80% and 82.3 ± 3.5%
same,Percent Inhibition of HSV-1,"[2]; 20(S)-Rg3 100 μM, ± standard error",90.3 ± 9.9%
same,IC50,[2],~35 µM
same,Percent Inhibition of HSV-1,[2]; [12],90.3%
same,"viability at 48 h, 125 μM","[3]; 20(S)-Rg3 125 μM, parentheses = greater proliferation or metabolic activity than untreated cells",122%
same,"viability at 48 h, 250 μM","[3]; 20(S)-Rg3 250 μM, parentheses = greater proliferation or metabolic activity than untreated cells",129%
same,"viability at 48 h, 500 μM",[3],17.7 ± 14.7%
same,Percent Inhibition of HSV-1,[4]; cells treated with compound 4 h prior to HSV-1 addition,90.1 ± 11.1%
same,Percent Inhibition of HSV-1,[4]; virus present on cells 4 h prior to compound addition,50.7 ± 4.4%
same,selectivity,[5]; Vero cell toxicity IC50 versus antiviral IC50 (HSV-1 and HSV-2),11 fold
same,IC50 at 48 h,[6],~400 µM
same,"viability at 48 h, 50 μM","[6]; 20(S)-Rg3 50 μM, parentheses = greater proliferation or metabolic activity than untreated cells, read-out: Percent Cell Viability",113%
same,"viability at 48 h, 100 μM","[6]; 20(S)-Rg3 100 μM, parentheses = greater proliferation or metabolic activity than untreated cells, read-out: Percent Cell Viability",114%
same,Percent Inhibition of HSV-2,[7]; 20(S)-Rg3 25 μM,14.3 ± 3.3%
same,Percent Inhibition of HSV-2,[7]; 20(S)-Rg3 50 μM,80% and 81.7 ± 10.3%
same,Percent Inhibition of HSV-2,[7]; 20(S)-Rg3 100 μM,114.7 ± 6.7%
same,IC50,"[7]; Human alphaherpesvirus 2, two-fold dilutions, linear regression, Vero cells, read-out: IC50 against HSV-2",~35 µM
CC(C)=CCC[C@@](C)(O)C1CC[C@]2(C)C1C(O)CC1C3(C)CCC(O)C(C)(C)C3CCC12C (stereo partly drawn) [20(R)-protopanaxadiol],Percent Inhibition of HSV-1,[2]; [12],14.4%
"CC(C)[C@H](N)C(=O)OCCOCn1cnc2c(=O)[nH]c(N)nc21 [Valacyclovir, reference compound]",Number of Plaques,[1],8.1 ± 1.1
same,Percent Reduction (plaques of HSV-1),[1],85.7%
same,IC50,[2],13.2 µM
same,reported IC50 ranges,[8],0.02 to 13.5 µg/mL
same,inhibition at 16 µM,"[4]; Human alphaherpesvirus 1, HSV-1 incubated together with valacyclovir (16 μM) 0 to 4 h prior to addition to cells, read-out: percent inhibition of HSV-1",52.3 to 54.7%
same,percent cell death,"[5]; African green monkey, 48 h, 16 μM",1.2 ± 0.4%
same,"viability at 48 h, 16 μM",[6],~99%
CC(C)=CCC[C@](C)(O[C@@H]1O[C@H](CO)[C@@H](O)[C@H](O)[C@H]1O)[C@H]1CC[C@]2(C)[C@@H]1[C@H](O)C[C@@H]1[C@@]3(C)CC[C@H](O[C@@H]4O[C@H](CO)[C@@H](O)[C@H](O)[C@H]4O[C@@H]4O[C@H](CO)[C@@H](O)[C@H](O)[C@H]4O)C(C)(C)[C@@H]3CC[C@]12C [Rd],Percent Inhibition of HSV-1,[2]; [12],36.1%
CC(C)=CCC[C@](C)(O[C@@H]1O[C@H](CO)[C@@H](O)[C@H](O)[C@H]1O)[C@H]1CC[C@]2(C)[C@@H]1[C@H](O)C[C@@H]1[C@@]3(C)CC[C@H](O)C(C)(C)[C@@H]3[C@@H](O[C@@H]3O[C@H](CO)[C@@H](O)[C@H](O)[C@H]3O[C@@H]3O[C@@H](C)[C@H](O)[C@@H](O)[C@H]3O)C[C@]12C [Re],Percent Inhibition of HSV-1,[2]; [12],26.7%
CC(C)=CCC[C@](C)(O[C@@H]1O[C@H](CO[C@@H]2O[C@@H](CO)[C@H](O)[C@H]2O)[C@@H](O)[C@H](O)[C@H]1O)[C@H]1CC[C@]2(C)[C@@H]1[C@H](O)C[C@@H]1[C@@]3(C)CC[C@H](O[C@@H]4O[C@H](CO)[C@@H](O)[C@H](O)[C@H]4O[C@@H]4O[C@H](CO)[C@@H](O)[C@H](O)[C@H]4O)C(C)(C)[C@@H]3CC[C@]12C [Rc],Percent Inhibition of HSV-1,[2]; [12],28.6%
20(S)-Rh2,Percent Inhibition of HSV-1,[2]; [12],46.2%
CC(C)=CCC[C@](C)(O[C@@H]1O[C@H](CO[C@@H]2O[C@H](CO)[C@@H](O)[C@H](O)[C@H]2O)[C@@H](O)[C@H](O)[C@H]1O)[C@H]1CC[C@]2(C)[C@@H]1[C@H](O)C[C@@H]1[C@@]3(C)CC[C@H](O[C@@H]4O[C@H](CO)[C@@H](O)[C@H](O)[C@H]4O[C@@H]4O[C@H](CO)[C@@H](O)[C@H](O)[C@H]4O)C(C)(C)[C@@H]3CC[C@]12C [Rb1],Percent Inhibition of HSV-1,[2]; [12],23% and 23.3%
CC(C)=CCC[C@@](C)(O)C1CC[C@]2(C)C1C(O)CC1C3(C)CCC(OC4OC(CO)C(O)C(O)C4OC4OC(CO)C(O)C(O)C4O)C(C)(C)C3CCC12C (stereo partly drawn) [20(R)-Rg3],Percent Inhibition of HSV-1,[2]; [12],22.7%
CC(C)=CCC[C@](C)(O[C@@H]1O[C@H](CO[C@@H]2OC[C@@H](O)[C@H](O)[C@H]2O)[C@@H](O)[C@H](O)[C@H]1O)[C@H]1CC[C@]2(C)[C@@H]1[C@H](O)C[C@@H]1[C@@]3(C)CC[C@H](O[C@@H]4O[C@H](CO)[C@@H](O)[C@H](O)[C@H]4O[C@@H]4O[C@H](CO)[C@@H](O)[C@H](O)[C@H]4O)C(C)(C)[C@@H]3CC[C@]12C [Rb3],Percent Inhibition of HSV-1,[2]; [12],30.9%
CC(C)=CCC[C@](C)(O[C@@H]1O[C@H](CO[C@@H]2OC[C@H](O)[C@H](O)[C@H]2O)[C@@H](O)[C@H](O)[C@H]1O)[C@H]1CC[C@]2(C)[C@@H]1[C@H](O)C[C@@H]1[C@@]3(C)CC[C@H](O[C@@H]4O[C@H](CO)[C@@H](O)[C@H](O)[C@H]4O[C@@H]4O[C@H](CO)[C@@H](O)[C@H](O)[C@H]4O)C(C)(C)[C@@H]3CC[C@]12C [Rb2],Percent Inhibition of HSV-1,[2]; [12],26.4%
CC(C)=CCC[C@](C)(O)C1CC[C@]2(C)C1C(O)CC1C3(C)CCC(O)C(C)(C)C3CCC12C (stereo partly drawn) [20(S)-protopanaxadiol],concentration not toxic for PC12 cells,[9],20 µM
"CC(C)=CCCC(C)(O)C1CC[C@]2(C)C1C(O)CC1C3(C)CCC(OC4OC(CO)C(O)C(O)C4OC4OC(CO)C(O)C(O)C4O)C(C)(C)C3CCC12C (some centres unmarked) [Rg3, ginsenoside Rg3]",effect on normal WI 38 cells,[10],no effect
same,"viability at 48 h, 500 μM",[3],< 20%
same,cytotoxic concentration,[11],120 µM
CC(C)=CCC[C@](C)(O[C@@H]1O[C@H](CO)[C@@H](O)[C@H](O)[C@H]1O)[C@H]1CC[C@]2(C)[C@@H]1[C@H](O)C[C@@H]1[C@@]3(C)CC[C@H](O)C(C)(C)[C@@H]3[C@@H](O[C@@H]3O[C@H](CO)[C@@H](O)[C@H](O)[C@H]3O)C[C@]12C [Rg1],Percent Inhibition of HSV-1,[2]; [12],13.2%
